Reference: US11103526B2, “Methods for treatment using small molecule potassium-sparing diuretics and natriuretics” (University of Pittsburgh—Of the Commonwealth System of …, priority 2016, dated 2021)

Assays:
anesthetized rats = experiment: Acute cardiovascular and renal effects of an intravenous bolus in anesthetized rats (Example 1); assay type: in vivo, male Sprague-Dawley rats; conditions: 33.5 μmoles/kg intravenous bolus
Protocol: Animals. This study employed male Sprague-Dawley rats (Charles River; Wilmington, Mass.) that were approximately 16 weeks old. The Institutional Animal Care and Use Committee approved all procedures.
The rats were anesthetized with Inactin (90 mg/kg, i.p.) and placed on an isothermal pad, and body temperature was monitored with a rectal probe thermometer and maintained at 37° C. with a heat lamp. […] A PE-50 cannula was inserted into the jugular vein, and an infusion of 0.9% saline at 25 μl/min was initiated. A PE-10 tubing was placed in the left ureter for urine collection. […] The dose was selected based on preliminary experiments with 8-aminoguanosine. […] Each group of rats (n of at least 6) received only one treatment. Ten minutes after the test agents were administered, urine was collected for another 30 minutes (Period 2: […] into the protocol).
Statistics. Absolute values are presented as the mean±SEM. Fold-increases were calculated as follows: Period 3 value÷Period 1 value. Statistical analyses were performed using analysis of variance (ANOVA) followed by Fisher's Least Significant Difference (LSD) test if the overall effects or interactions in the ANOVA were significant. P<0.05 was considered statistically significant.

MCT-induced PH = experiment: Monocrotaline (MCT)-induced pulmonary hypertension; assay type: in vivo, male Sprague Dawley rats; conditions: 30 mg/kg/day
Protocol: Because PNPase metabolizes guanosine to guanine, the mechanism by which PNPase activity is associated with PH likely includes guanosine protection against PH. A total of 24 male Sprague Dawley rats were used to determine whether administration of guanosine attenuates the development of PH in animals with MCT-induced PH. Animals were randomly assigned for intraperitoneal (i.p.) injection with either a mixture of 1 ml of 1N HCl neutralized with 1.0 N NaOH and diluted with distillated water (10 ml/kg, Control group; n=8) or MCT (60 mg/kg, […]). The MCT (Sigma, St Louis, Mo.) was dissolved in 1N HCl at 100 mg/ml, which was neutralized with 1 N NaOH and diluted with distillated water to 6 mg/ml. Next, a subset of MCT rats (n=8) were assigned to receive guanosine (30 mg/kg/day). The rats were randomly assigned to the Control, MCT, or MCT+guanosine group.
In this PH model, three weeks after MCT administration, mortality rapidly increases (Ren et al., J Pharmacol Exp Ther., 325:920-926, 2008; Seoane et al., Southern Medical Journal, 94:635-639, 2001). Therefore, animals were monitored for four weeks, and acute measurements of right ventricular pressure and morphometric analyses were performed. Twenty-eight days after administration of MCT, the animals were anesthetized and instrumented for right ventricular peak systolic pressure (RVPSP) measurement. Briefly, a PE-240 polyethylene catheter was inserted into the trachea to facilitate breathing. An angled Milliar Micro-tip pressure transducer catheter SPR-513 (Millar Instruments) was inserted into the right jugular vein and advanced into the right ventricle (RV) for RVPSP measurement. After 30-minutes of stabilization, RVPSP was recorded over 20 minutes. The animals were euthanized by anesthetic overdose, and the heart and lungs were collected for morphometric analyses.

[1] = test system: RBCs from SCD patients (HbSS); experiment: Hypoxia-induced sickling of RBCs from SCD patients; assay type: cell-based, human; conditions: 2 μmol/L; 1.5 hours pre-incubation, then hypoxia for 3 hours
Protocol: In addition to causing PH in SCD patients and HIV-infected patients, the contribution of PNPase to RBC sickling in SCD patients was assessed. Fresh RBCs were obtained from two adult SCD patients (HbSS); the RBCs were diluted in F-10 HAM buffer to a final hematocrit of 4%. Next, glucose was added for a final concentration of 5.5 mmol/L, and the samples were incubated at room air/temperature in 12-well plates. The RBCs were then treated with either vehicle, 8-aminoguanosine (2 μmol/L), inosine (2 μmol/L), or an 8-aminoguanosine and inosine combination. After 1.5 hours, the RBCs were placed in a hypoxic glove box and maintained under hypoxia (5% 02) for 3 hours, while undergoing mild agitation. At the end of incubation, to prevent reoxygenation-derived morphological changes, the RBCs were fixed under hypoxic conditions in the hypoxic glove box. The samples were assayed for percent sickling.

[2] = Period 3 compared with Period 1

Nc1nc2c(nc(O)n2[C@H]2C[C@H](O)[C@@H](CO)O2)c(=O)[nH]1 [8-hydroxy-2-deoxyguanosine]
efficacy grouping (diuretic/natriuretic) (anesthetized rats): little or no efficacy

Nc1nc2[nH]c(O)nc2c(=O)[nH]1 [8-hydroxyguanine, 8-Hydroxyguanine]
efficacy grouping (diuretic/natriuretic) (anesthetized rats): moderate efficacy | sodium excretion increase (anesthetized rats; [2]): 8.6 fold

Nc1nc2c(nc(O)n2[C@@H]2O[C@H](CO)[C@@H](O)[C@H]2O)c(=O)[nH]1 [8-hydroxyguanosine, 8-Hydroxyguanosine]
efficacy grouping (diuretic/natriuretic) (anesthetized rats): moderate efficacy | sodium excretion increase (anesthetized rats; [2]): 7.1 fold

Nc1nc2[nH]c([N+](=O)[O-])nc2c(=O)[nH]1 [8-nitroguanine, 8-Nitroguanine]
efficacy grouping (diuretic/natriuretic) (anesthetized rats): moderate efficacy | sodium excretion increase (anesthetized rats; [2]): 7.8 fold

Nc1nc2c(nc([N+](=O)[O-])n2[C@@H]2O[C@H](CO)[C@@H](O)[C@H]2O)c(=O)[nH]1 [8-nitroguanosine]
efficacy grouping (diuretic/natriuretic) (anesthetized rats): little or no efficacy

NC(N)=NC(=O)c1nc(Cl)c(N)nc1N [amiloride, Amiloride, reference compound]
effect on heart rate (HR) (anesthetized rats): modestly decreased | effect on mean arterial blood pressure (MABP) (anesthetized rats): modestly decreased | effect on mesenteric blood flow (MBF) (anesthetized rats): modestly decreased | effect on renal blood flow (RBF) (anesthetized rats): modestly decreased | urine volume increase (anesthetized rats; Period 3 (85-115 min) compared with Period 1 (0-30 min)): 4.5 fold | potassium excretion decrease (anesthetized rats; [2]): 96.5% | sodium excretion increase (anesthetized rats; [2]): 13.6 fold | effect on glucose excretion (anesthetized rats; in words): did not change

Nc1nc2[nH]cnc2c(=O)[nH]1 [guanine, Guanine, reference compound]
efficacy grouping (diuretic/natriuretic) (anesthetized rats): moderate efficacy | sodium excretion increase (anesthetized rats; [2]): 9.4 fold

Nc1nc2c(ncn2[C@@H]2O[C@H](CO)[C@@H](O)[C@H]2O)c(=O)[nH]1 [guanosine, Guanosine]
efficacy grouping (diuretic/natriuretic) (anesthetized rats): little or no efficacy | RV dysfunction (RV EDP, contractility index) (MCT-induced PH; 28 days after MCT): prevented | RV hypertrophy (RV mass) (MCT-induced PH; 28 days after MCT): attenuated | inflammatory cell infiltration into the lungs (ED1+ cells) (MCT-induced PH; 28 days after MCT): reduced | pulmonary vascular remodeling (MCT-induced PH; 28 days after MCT): attenuated | pulmonary hypertension (RVPSP) (MCT-induced PH; 28 days after MCT 60 mg/kg): attenuated

O=c1[nH]cnc2c1ncn2[C@@H]1O[C@H](CO)[C@@H](O)[C@H]1O [inosine, Inosine]
hypoxia-induced sickling of RBCs [1]: significantly reduced
